For orientation: GI50 means the concentration giving 50% growth inhibition.

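Growth conditions: 96-well plates. Treatment: test compound, 48 hours, 5 concentrations. Analysis: linear interpolation between bracketing concentrations; unreached endpoints set to highest concentration. GI50: concentration for 50% inhibition of growth.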 Activity calls are given as the source filed them. No stated cut-off is given here; in the data, active = GI50 up to about 1.1 µM and inactive = higher. *1 amine or outer side, *2 acyl side, *3 side chain or, on linkers, in order; H or OH if unused. Where a SMILES comes first, the peptide text is derived from it. Bridges are numbered along the chain shown (N, C = ends). Roman numbers before positions name the chains, in order. [ ]: non-standard residue; d: D form. Actinocin(1to9) = Cc1c2oc3c(C)ccc(C(=O)[*:2])c3nc-2c(C(=O)[*:1])c(N)c1=O; NMeV = CN[CH](C(=O)O)C(C)C; Sar = CNCC(=O)O

The results in this text go back to ChEMBL document CHEMBL1201862, “PubChem BioAssay data set” (2004).

Test in all cases: DTP human tumour cell line panel, 48 h
In test [1] the test system is 786-0.
Test [2] has as its system ACHN.
The test system of test [3] is COLO 205.
Test [4] relates to DU-145.
Test [5] deals with HCC 2998.
In test [6] the test system is HCT-15.
Test [7] relates to IGROV-1.
The subject of test [8] is MCF7.
Test [9] relates to MDA-MB-231.
The test system of test [10] is MDA-N.
The test system of test [11] is MOLT-4.
Test [12] concerns RXF 393.
Test [13] deals with SF-295.
In test [14] the test system is SK-MEL-28.
Test [15] deals with SK-MEL-2.
In test [16] the test system is SK-MEL-5.
The subject of test [17] is SW-620.
The test system of test [18] is UACC-62.
Test [19] deals with UO-31.

On to `COC(=O)C(=O)C(C(=O)C(=O)Nc1cc(C)ccc1C)c1nc2ccccc2nc1O` (stereo not drawn), for which the GI50 in test [1] is > 100 µM (inactive); in test [2], > 100 µM (inactive); in [3], > 100 µM (inactive); in test [4], > 100 µM (inactive); in test [5], > 100 µM (inactive); in test [6], greater than 100 µM. For the same compound, the GI50 in test [7] was 67 µM (inactive); in test [8] it was > 100 µM (inactive); in test [9], > 100 µM (inactive); in test [10], > 100 µM (inactive); in test [11], 71.3 µM (inactive); in test [12], 77.3 µM (inactive). Further, the GI50 in test [13] was > 100 µM (inactive); in test [14], > 100 µM (inactive); in test [15], > 100 µM (inactive); in [16], > 100 µM (inactive); in test [17], > 100 µM (inactive); in test [18], 87.7 µM (inactive). Also, in test [19], the GI50 was > 100 µM (inactive).
Consider `CCC(C)C1NC(=O)C(NC(=O)c2c3nc4c(C(=O)NC5C(=O)NC(C(C)C)C(=O)N6CCCC6C(=O)N(C)CC(=O)N(C)C(C(C)C)C(=O)OC5C)ccc(C)c4oc-3c(C)c(=O)c2N)C(C)OC(=O)C(C(C)C)N(C)C(=O)CN(C)C(=O)C2CCCN2C1=O` (stereo not drawn) (I: TIP[Sar][NMeV] / II: TVP[Sar][NMeV]; ester I:1-I:C, II:1-II:C; linker I:N-II:N via Actinocin(1to9); configuration not given here), for which the 50% growth inhibitory concentration (GI50) in test [1] was 0.00042 µM (active); in test [2] it was 0.000647 µM (active); in [3] it was < 0.0001 µM (active); in test [4], 0.00475 µM (active); in test [5], 0.237 µM (active); in test [6] it was 0.0807 µM. The concentration for 50% growth inhibition (GI50) in test [7] was 0.00393 µM (active); in test [8], < 0.0001 µM (active); in test [9], 0.000173 µM (active); in test [10], 0.000135 µM (active); in test [11] it was < 0.0001 µM (active); in test [12], 0.01 µM (active). The GI50 was 0.000353 µM (active) in test [13]; 0.000733 µM (active) in test [14]; 0.00172 µM (active) in [15]; < 0.0001 µM (active) in test [16]; < 0.0001 µM (active) in test [17]; 0.00589 µM (active) in test [18]. The GI50 in [19] was 0.0787 µM (active).
For the compound `O=C(C(=O)n1ccc2ccccc21)c1c[nH]c2ccccc12`, the GI50 in test [1] was > 10 µM (inactive); in test [2], > 10 µM (inactive); in test [3], > 10 µM (inactive); in [4] it was > 10 µM (inactive); in [5], > 10 µM (inactive); in test [6], greater than 10 µM. Moreover, the GI50 in test [7], in test [8], in [9], in test [10], in test [11] and in test [12] was > 10 µM (inactive) throughout. For the same compound, the GI50 in [13], in [14], in test [15], in [16], in test [17] and in test [18] was > 10 µM (inactive) throughout. Also, in [19], the GI50 was > 10 µM (inactive).
Consider `CN(C)CCCC1c2ccccc2Oc2ccc(C(F)(F)F)cc21` (stereo not drawn), for which the GI50 in [1] is 12.4 µM (inactive); in test [2], 16.7 µM (inactive); in test [3], 4.65 µM (inactive); in test [4] it was 17.2 µM (inactive); in test [5] it was 1.63 µM (inactive); in [6], 16.1 µM. Moreover, the GI50 in [7] was 14 µM (inactive); in [8], 12.7 µM (inactive); in test [9] it was 12.8 µM (inactive); in test [10], 4.02 µM (inactive); in test [11] it was 6.64 µM (inactive); in test [12] it was 7.19 µM (inactive). The GI50 was 16.5 µM (inactive) in test [13]; 6.46 µM (inactive) in test [14]; 14.6 µM (inactive) in test [15]; 7.45 µM (inactive) in test [16]; 15.4 µM (inactive) in [17]; 9.42 µM (inactive) in test [18]. Besides, the GI50 in test [19] was 1.82 µM (inactive).
With `O=[N+]([O-])c1nccn1CC(O)CN1CCCCC1` (stereo not drawn) [PIMONIDAZOLE], the GI50 in test [1] was > 100 µM (inactive); in test [2], > 100 µM (inactive); in [3], > 100 µM (inactive); in [4], > 100 µM (inactive); in [5], > 100 µM (inactive); in test [6] it was greater than 100 µM. The GI50 in [7], in test [8], in test [9], in test [10], in [11] and in test [12] was > 100 µM (inactive) throughout. The GI50 in test [13], in [14], in test [15], in test [16], in test [17] and in [18] was > 100 µM (inactive) in each case. Also, the GI50 in test [19] is > 100 µM (inactive).
With `CC(=O)OCC1OC(n2c(C#N)cc(=O)[nH]c2=O)CC1OC(C)=O` (stereo not drawn), the GI50 in test [1] is > 100 µM (inactive); in test [2] it was > 100 µM (inactive); in test [3], > 100 µM (inactive); in test [4] it was > 100 µM (inactive); in test [5] it was > 10 µM (inactive); in test [6], greater than 100 µM. Also, the GI50 in [7], in test [8], in [9], in test [10], in test [11] and in test [12] was > 100 µM (inactive) in each case. For the same compound, the GI50 in test [13], in test [14], in test [15], in test [16], in [17] and in test [18] was > 100 µM (inactive) each time. The GI50 in test [19] was > 100 µM (inactive).
For the compound `Nc1ccc2c(c1)C(=O)N1CCC[C@H]1C(=O)N2`, the GI50 was > 100 µM (inactive) in test [1]; > 100 µM (inactive) in test [2]; > 100 µM (inactive) in test [3]; > 100 µM (inactive) in [4]; > 100 µM (inactive) in test [5]; greater than 100 µM in test [6]. Moreover, the GI50 in [7], in test [8], in test [9], in test [10], in test [11] and in [12] was > 100 µM (inactive) each time. Moreover, the GI50 in test [13], in [14], in test [15], in [16], in test [17] and in test [18] was > 100 µM (inactive) in each case. In test [19], the GI50 was > 100 µM (inactive).
